Here are results for seven molecules from patent publication US20240050522A1, “COMPOSITIONS AND METHODS FOR PREVENTING, ATTENUATING, AND TREATING MEDICAL CONDITIONS WITH sHDL NANOPARTICLES” (The Regents of the University of Michigan, priority 2020, published 2024).

For series [1] the following is noted: phospholipid alone, not complexed with 22A; cited from earlier work.
Series [2] in a line: Diameter of 22A-phospholipid sHDL complexes by DLS. As to conditions: volume intensity average. In kind it is physicochemical. As for the experimental part: The quality of resulting sHDL complexes were analyzed by following analytical techniques. The purity of sHDL complexes were determined by gel permeation chromatography (GPC), with UV detection at 220 nm, using a Tosoh TSK gel G3000SWxl column (Tosoh Bioscience, King of Prussia, PA). The sHDL diameters were determined by dynamic light scattering (DLS), using a Zetasizer Nano ZSP (Malvern Instruments, Westborough, MA) and the volume intensity average values were reported. Transition temperature of sHDL complexes were analyzed by differential scanning calorimetry (DSC) using Nano DSC (TA Instruments, New Castle, DE).

The test system of series [3] is NF-κB reporter, human TLR4 (HEK-Blue cells). Briefly: LPS-induced NF-κB expression in HEK-Blue cells (Example X). The class given is cell-based. As to conditions: 0.1 mg/ml, LPS 2 ng/ml, 18 h. As for the experimental part: FIG. 29A-I: sHDL complexes inhibit LPS-induced NF-κB activation in a lipid component and concentration dependent. HEK-Blue system was used to analyze neutralization of the LPS-induced inflammatory response. HEK-Blue cells were co-stimulated with 0.01, 0.03, and 0.1 mg/ml sHDL and 2 ng/ml LPS and incubated for 18 h. The activation of NF-κB reporter was quantified by measuring absorption at 650 nm (A-H). sHDL at 0.03 mg/ml were treated in presence of 2 ng/ml LPS and the activation of NF-κB reporter was quantified by measuring absorption at 650 nm (I).
The HEK-Blue cell system (InvivoGen) was used to analyze neutralization of the LPS-induced inflammatory response. HEK-Blue cells stably express reporter-linked human TLR4, CD14, MD2, and a NF-κB and are designed for studying the stimulation of human TLR4. Briefly, HEK-Blue cells were cultured in Dulbecco's Modified Eagle's Medium (DMEM) containing 10% low endotoxin fetal bovine serum (FBS) and selective antibiotics according to the manufacturer's instructions (InvivoGen). Growth medium was discarded and cells were resuspended in HEK-Blue Detection medium. Cells were seeded at 25,000 cells per well. The cells were treated with sHDL at 0.01, 0.03, or 0.1 mg/ml and 2 ng/ml of LPS. […] The blue color was quantified by measuring absorption at 650 nm using a SpectraMax M3 plate reader (Molecular Devices, Sunnyvale, CA).

Series [4] relates to endotoxemia mice (5 mg/kg LPS). As to conditions: 100 mg/kg; cited from earlier work.
The next series relates to endotoxemia rats. The conditions noted are these: cited from earlier work.
The next series has as its system SARS-CoV. The conditions noted are these: via reduced or relocated ACE-2 receptors; cited from earlier work.

For the molecule `CCCCCCCCCCCCCC(=O)OC[C@H](COP(=O)([O-])OCC[N+](C)(C)C)OC(=O)CCCCCCCCCCCCC` [DMPC, 1,2-dimyristoyl-sn-glycero-3-phosphatidylcholine], in series [1], the Tm of phospholipid is 24.5 °C. Take `CCCCCCCCCCCCCCCC(=O)OC[C@H](COP(=O)([O-])OCC[N+](C)(C)C)OC(=O)CCCCCCCCCCCCCCC` [DPPC, 1,2-dipalmitoyl-sn-glycero-3-phosphatidylcholine]: the Tm of phospholipid in series [1] is 41.6 °C. Turning to `CCCCCCCCCCCCCCCCCC(=O)OC[C@H](COP(=O)([O-])OCC[N+](C)(C)C)OC(=O)CCCCCCCCCCCCCCCCC` [DSPC, 1,2-distearoyl-sn-glycero-3-phosphatidylcholine], the Tm of phospholipid in series [1] was 54.5 °C. As for `CCCCCCCC/C=C\CCCCCCCC(=O)O[C@H](COC(=O)CCCCCCCCCCCCCCC)COP(=O)([O-])OCC[N+](C)(C)C` [POPC, 1-palmitoyl-2-oleoyl-phosphatidylcholine], the Tm of phospholipid in series [1] was −3.3±0.5 °C. Take “PVLDLFRELLNELLEALKQKLK (SEQ ID NO: 4) [22A peptide]”: the “Size (nm)” value in series [2] stood at 4.49 nm; in series [2] (listed as 22A PEPTIDE), 4.488 nm. In addition, the “activation of NF-kB” value in series [3] is “suppressed”. Turning to apoA-I: apolipoprotein A-I, in series [4], the mortality entry was “significantly lowered”. Further, the “plasma TNF-α” value with endotoxemia rats (10 mg/kg 2 h post-LPS injection (1 mg/kg LPS)) is “reduce”. For the same molecule, the survival rate entry in the series on endotoxemia rats (10 mg/kg, endotoxemia rats (5 mg/kg)) is given as “increased”. As for methyl-β-cyclodextrin [MβCD], in the series with SARS-CoV, the SARS-CoV cell entry result is recorded as “inhibited”.
